As a reminder, the EC50 is the concentration needed to bring the measured effect to its halfway point. High values mean a less potent agent, low ones a more potent agent.

Here are results for eleven compounds from ChEMBL document CHEMBL1144419, “N-terminal fatty acylated His-dPhe-Arg-Trp-NH(2) tetrapeptides: influence of fatty acid chain length on potency and selectivity at the mouse melanocortin receptors and human melanocytes” (J Med Chem, 2005).

Holding throughout (format): functional
The target of one test is Melanocortin receptor 5 (Mus musculus, UniProt P41149). Nature of the test: In vitro agonist potency for Mouse Melanocortin 5 receptor.
Test [1] concerns the target Melanocyte-stimulating hormone receptor (Mus musculus, UniProt Q01727). Nature of the test: In vitro agonist potency for Mouse Melanocortin 1 receptor.
The target of a further test is Melanocortin receptor 3 (Mus musculus, UniProt P33033). The test can be described thus: In vitro agonist potency for Mouse Melanocortin 3 receptor.
A further test has as its target Melanocortin receptor 4 (Mus musculus, UniProt P56450). The test can be described thus: In vitro agonist potency for Mouse Melanocortin 4 receptor.

Sequence of Melanocyte-stimulating hormone receptor (Q01727 whole entry): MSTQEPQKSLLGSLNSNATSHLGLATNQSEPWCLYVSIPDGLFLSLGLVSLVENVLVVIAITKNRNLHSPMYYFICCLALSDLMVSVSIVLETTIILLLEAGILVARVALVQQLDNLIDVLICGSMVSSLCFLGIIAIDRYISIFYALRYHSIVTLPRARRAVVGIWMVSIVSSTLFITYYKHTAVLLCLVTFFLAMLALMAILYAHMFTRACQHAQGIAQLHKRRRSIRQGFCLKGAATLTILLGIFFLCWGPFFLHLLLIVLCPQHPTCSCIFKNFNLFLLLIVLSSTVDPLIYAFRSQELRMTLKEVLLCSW
Sequence of Melanocortin receptor 5 (P41149 whole entry): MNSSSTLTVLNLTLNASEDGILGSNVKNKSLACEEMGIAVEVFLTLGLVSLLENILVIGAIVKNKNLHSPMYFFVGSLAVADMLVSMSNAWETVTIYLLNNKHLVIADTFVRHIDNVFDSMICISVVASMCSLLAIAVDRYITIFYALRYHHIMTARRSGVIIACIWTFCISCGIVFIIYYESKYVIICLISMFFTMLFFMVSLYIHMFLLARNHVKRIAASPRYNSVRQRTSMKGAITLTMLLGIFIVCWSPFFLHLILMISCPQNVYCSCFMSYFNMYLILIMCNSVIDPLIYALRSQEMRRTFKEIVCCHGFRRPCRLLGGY
Sequence of Melanocortin receptor 4 (P56450 whole entry): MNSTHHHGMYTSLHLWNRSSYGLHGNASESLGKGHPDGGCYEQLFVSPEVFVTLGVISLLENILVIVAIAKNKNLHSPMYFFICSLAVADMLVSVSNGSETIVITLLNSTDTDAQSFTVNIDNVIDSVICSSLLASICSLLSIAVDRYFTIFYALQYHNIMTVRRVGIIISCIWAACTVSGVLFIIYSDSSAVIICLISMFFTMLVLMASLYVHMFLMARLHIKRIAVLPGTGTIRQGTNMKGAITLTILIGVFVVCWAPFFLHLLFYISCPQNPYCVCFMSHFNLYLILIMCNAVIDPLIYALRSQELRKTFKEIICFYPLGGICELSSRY
Sequence of Melanocortin receptor 3 (P33033 whole entry): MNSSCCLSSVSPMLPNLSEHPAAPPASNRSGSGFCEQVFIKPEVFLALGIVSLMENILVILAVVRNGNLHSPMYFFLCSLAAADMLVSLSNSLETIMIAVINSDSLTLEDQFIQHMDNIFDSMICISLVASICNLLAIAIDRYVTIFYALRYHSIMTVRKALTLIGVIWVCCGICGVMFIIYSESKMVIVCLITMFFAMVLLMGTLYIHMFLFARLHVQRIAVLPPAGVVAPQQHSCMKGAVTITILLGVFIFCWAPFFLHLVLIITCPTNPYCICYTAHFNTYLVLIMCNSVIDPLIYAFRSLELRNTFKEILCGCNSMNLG

In the case of `CCCCCCCCCC(=O)N[C@@H](Cc1c[nH]cn1)C(=O)N[C@H](Cc1ccccc1)C(=O)N[C@@H](CCCN=C(N)N)C(=O)N[C@@H](Cc1c[nH]c2ccccc12)C(N)=O`, the concentration giving a half-maximal response (EC50) on Melanocortin receptor 5 turned out to be 4.83 nM; in test [1] it was 3.34 nM; at Melanocortin receptor 3 it was 44.8 nM; at Melanocortin receptor 4, 14.4 nM.
Take `CCCCCCCCCCCCCCCCC(=O)N[C@@H](Cc1c[nH]cn1)C(=O)N[C@H](Cc1ccccc1)C(=O)N[C@@H](CCCN=C(N)N)C(=O)N[C@@H](Cc1c[nH]c2ccccc12)C(N)=O`: the concentration for a half-maximal effect (EC50) came to 2.82 nM on Melanocortin receptor 5, 0.72 nM in test [1], 266 nM at Melanocortin receptor 3 and 21.4 nM at Melanocortin receptor 4.
As for `CCCCCCCCCCCCCC(=O)N[C@@H](Cc1c[nH]cn1)C(=O)N[C@H](Cc1ccccc1)C(=O)N[C@@H](CCCN=C(N)N)C(=O)N[C@@H](Cc1c[nH]c2ccccc12)C(N)=O`, the EC50 on Melanocortin receptor 5 is 3.39 nM; in test [1], 0.58 nM; on Melanocortin receptor 3, 220 nM; on Melanocortin receptor 4 it was 10.5 nM.
The corresponding values for `N=C(N)NCCC[C@H](NC(=O)[C@@H](Cc1ccccc1)NC(=O)[C@@H](N)Cc1cnc[nH]1)C(=O)N[C@@H](Cc1c[nH]c2ccccc12)C(N)=O` are 2.78 nM, 67 nM, 250 nM and 18.5 nM.
Take `CCCCCCCC(=O)N[C@@H](Cc1c[nH]cn1)C(=O)N[C@H](Cc1ccccc1)C(=O)N[C@@H](CCCN=C(N)N)C(=O)N[C@@H](Cc1c[nH]c2ccccc12)C(N)=O`: the EC50 at Melanocortin receptor 5 worked out at 0.57 nM; in test [1], 0.33 nM; on Melanocortin receptor 3, 9.29 nM; at Melanocortin receptor 4, 2.52 nM.
As for `CCCCCCCCCCCCCCCC(=O)N[C@@H](Cc1cnc[nH]1)C(=O)N[C@H](Cc1ccccc1)C(=O)N[C@@H](CCCNC(=N)N)C(=O)N[C@@H](Cc1c[nH]c2ccccc12)C(N)=O`, the EC50 amounted to 2.99 nM on Melanocortin receptor 5, 0.99 nM in test [1], 154 nM on Melanocortin receptor 3 and 26.6 nM at Melanocortin receptor 4.
For `CCCCCCCCC(=O)N[C@@H](Cc1cnc[nH]1)C(=O)N[C@H](Cc1ccccc1)C(=O)N[C@@H](CCCNC(=N)N)C(=O)N[C@@H](Cc1c[nH]c2ccccc12)C(N)=O`, the EC50 at Melanocortin receptor 5 came to 0.88 nM; in test [1] it was 0.4 nM; at Melanocortin receptor 3, 5.1 nM; on Melanocortin receptor 4, 1.14 nM.
As for `CCCCCCCCCCCCC(=O)N[C@@H](Cc1cnc[nH]1)C(=O)N[C@H](Cc1ccccc1)C(=O)N[C@@H](CCCNC(=N)N)C(=O)N[C@@H](Cc1c[nH]c2ccccc12)C(N)=O`, the EC50 on Melanocortin receptor 5 turned out to be 4.43 nM; in test [1], 0.94 nM; on Melanocortin receptor 3, 139 nM; on Melanocortin receptor 4, 20.6 nM.
On to `CC(=O)N[C@@H](Cc1cnc[nH]1)C(=O)N[C@H](Cc1ccccc1)C(=O)N[C@@H](CCCN=C(N)N)C(=O)N[C@@H](Cc1c[nH]c2ccccc12)C(N)=O`, for which the EC50 on Melanocortin receptor 4 came to 10.7 nM.
Turning to `CCCCCCCCCCCCCCC(=O)N[C@@H](Cc1c[nH]cn1)C(=O)N[C@H](Cc1ccccc1)C(=O)N[C@@H](CCCN=C(N)N)C(=O)N[C@@H](Cc1c[nH]c2ccccc12)C(N)=O`, the EC50 was found to be 3.02 nM on Melanocortin receptor 5, 2.07 nM in test [1], 134 nM at Melanocortin receptor 3 and 13.2 nM on Melanocortin receptor 4.
The matching figures for `CCCCCCCCCCC(=O)N[C@@H](Cc1cnc[nH]1)C(=O)N[C@H](Cc1ccccc1)C(=O)N[C@@H](CCCNC(=N)N)C(=O)N[C@@H](Cc1c[nH]c2ccccc12)C(N)=O`: 10 nM, 2.8 nM, 102 nM and 19 nM.
